Structures can show the parent of a compound that is named as a salt.
Biological target: T1, recombinant IRAK-4 kinase (Homo sapiens, UniProt Q9NWZ3)
T1 construct: purchased Millipore, USA
T1 sequence (Q9NWZ3 1-460): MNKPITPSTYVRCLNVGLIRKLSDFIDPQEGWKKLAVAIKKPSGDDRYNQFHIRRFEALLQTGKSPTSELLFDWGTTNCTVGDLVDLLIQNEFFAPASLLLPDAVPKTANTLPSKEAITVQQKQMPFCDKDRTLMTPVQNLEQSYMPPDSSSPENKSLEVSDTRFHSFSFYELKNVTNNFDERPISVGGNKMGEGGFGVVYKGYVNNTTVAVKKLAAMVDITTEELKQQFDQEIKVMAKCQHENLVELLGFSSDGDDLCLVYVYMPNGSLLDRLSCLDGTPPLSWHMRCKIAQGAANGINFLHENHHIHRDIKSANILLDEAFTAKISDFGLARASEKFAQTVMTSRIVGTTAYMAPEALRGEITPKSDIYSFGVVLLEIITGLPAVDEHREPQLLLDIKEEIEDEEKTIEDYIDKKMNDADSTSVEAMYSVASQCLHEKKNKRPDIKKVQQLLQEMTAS
Assay: IRAK-4 Biochemical Assay (TR-FRET)
Conditions: 5 ng IRAK-4 kinase, 100 nM Biotin Histone H3, 20 μM ATP, 30 minutes pre-incubation, read-out: IC50 values for IRAK4 activity
Method: Compounds were tested for their potential to inhibit IRAK-4 enzyme in a TR-FRET assay using recombinant IRAK-4 kinase from Millipore, USA. The assay buffer was 50 mM Tris-HCl pH 7.5, 20 mM MgCl2, 1 mM EGTA, 2 mM DTT, 3 mM MnCl2 and 0.01% Tween20. 5 ng of IRAK-4 kinase was used for the assay. After pre-incubation of enzyme with test compound for 30 minutes at room temperature, a substrate mix containing 100 nM Biotin Histone H3 (Millipore, USA) and 20 μM ATP (Sigma, USA) was added and the reaction was incubated for 30 minutes. Post incubation, the reaction was stopped by the addition of stop mix containing 40 mM EDTA, 1 nM of Europium-Anti-Phospho-Histone H3 (Ser10) antibody (Perkin Elmer, USA) and 20 nM Sure Light Allophycocyanin-Streptavidin (Perkin Elmer, USA).

SMILES | IC50
O=C(Nc1cc2oc(N3CCCCC3)nc2nc1N1CCCCC1)c1cccc(-c2cn[nH]c2)n1 [Example 4, N-(2,5-di(piperidin-1-yl)oxazolo[4,5-b]pyridin-6-yl)-6-(1H-pyrazol-4-yl)picolinamide hydrochloride] | 50 to 100 nM
Cc1cc(-c2nc(C(=O)Nc3cc4oc(N5CCCCC5)nc4nc3N3CCCCC3)co2)ccn1 [Example 5, N-(2,5-di(piperidin-1-yl)oxazolo[4,5-b]pyridin-6-yl)-2-(2-methylpyridin-4-yl)oxazole-4-carboxamide] | < 50 nM
O=C(Nc1cc2oc(N3CCOCC3)nc2nc1N1CCCCC1)c1cccc(Cl)n1 [Example 8, 6-chloro-N-(2-morpholino-5-(piperidin-1-yl)oxazolo[4,5-b]pyridin-6-yl)picolinamide] | < 50 nM
Cn1cc(-c2cccc(C(=O)Nc3cc4oc(N5CCCCC5)nc4nc3N3CCCCC3)n2)cn1 [Example 9, N-(2,5-di(piperidin-1-yl)oxazolo[4,5-b]pyridin-6-yl)-6-(1-methyl-1H-pyrazol-4-yl)picolinamide] | 50 to 100 nM
O=C(Nc1cc2oc(N3CCCCC3)nc2nc1N1CCCCC1)c1coc(-c2ccnc(Cl)c2)n1 [Example 10, 2-(2-chloropyridin-4-yl)-N-(2,5-di(piperidin-1-yl)oxazolo[4,5-b]pyridin-6-yl)oxazole-4-carboxamide] | < 50 nM
Cc1cc(-c2nc(C(=O)Nc3cc4oc(N5CCOCC5)nc4nc3N[C@H]3CCNC3)co2)ccn1 [Example 11, (S)-2-(2-methylpyridin-4-yl)-N-(2-morpholino-5-(pyrrolidin-3-ylamino)oxazolo[4,5-b]pyridin-6-yl)oxazole-4-carboxamide] | < 50 nM
Nc1ccc(-c2cccc(C(=O)Nc3cc4sc(N5CCOCC5)nc4cn3)n2)cn1 [Example 13, 6′-amino-N-(2-morpholinothiazolo[4,5-c]pyridin-6-yl)-[2,3′-bipyridine]-6-carboxamide] | < 50 nM
Nc1ccc(-c2cccc(C(=O)Nc3ccc4nc(N5CCOCC5)sc4n3)n2)cn1 [Example 14, 6′-amino-N-(2-morpholinothiazolo[5,4-b]pyridin-5-yl)-[2,3′-bipyridine]-6-carboxamide] | < 50 nM
Nc1ccc(-c2cccc(C(=O)Nc3cnc4nc(N5CCOCC5)sc4c3)n2)cn1 [Example 16, 6′-amino-N-(2-morpholinothiazolo[4,5-b]pyridin-6-yl)-[2,3′-bipyridine]-6-carboxamide] | < 50 nM
O=C(Nc1cnc2nc(N3CCOCC3)sc2c1)c1cccc(-c2cn[nH]c2)n1 [Example 17, N-(2-morpholinothiazolo[4,5-b]pyridin-6-yl)-6-(1H-pyrazol-4-yl)picolinamide] | > 100 nM
Cc1cc(-c2nc(C(=O)Nc3cc4sc(N5CCOCC5)nc4nc3N3CCCCC3)co2)ccn1 [Example 20, 2-(2-methylpyridin-4-yl)-N-(2-morpholino-5-(piperidin-1-yl)thiazolo[4,5-b]pyridin-6-yl)oxazole-4-carboxamide] | < 50 nM
O=C(Nc1cc2sc(N3CCOCC3)nc2nc1N1CCCCC1)c1cccc(-c2cn[nH]c2)n1 [Example 21, N-(2-morpholino-5-(piperidin-1-yl)thiazolo[4,5-b]pyridin-6-yl)-6-(1H-pyrazol-4-yl)picolinamide] | < 50 nM
O=C(Nc1cc2sc(N3CCCCC3)nc2nc1N1CCCCC1)c1cccc(-c2cn[nH]c2)n1 [Example 22, N-(2,5-di(piperidin-1-yl)thiazolo[4,5-b]pyridin-6-yl)-6-(1H-pyrazol-4-yl)picolinamide] | < 50 nM
Cc1cc(-c2nc(C(=O)Nc3cc4sc(N5CCCCC5)nc4nc3N3CCCCC3)co2)ccn1 [Example 23, N-(2,5-di(piperidin-1-yl)thiazolo[4,5-b]pyridin-6-yl)-2-(2-methylpyridin-4-yl)oxazole-4-carboxamide] | < 50 nM
Cc1cc(-c2nc(C(=O)Nc3cc4oc(N5CCOCC5)nc4nc3N3CCOCC3)co2)ccn1 [Example 24, N-(2,5-dimorpholinooxazolo[4,5-b]pyridin-6-yl)-2-(2-methylpyridin-4-yl)oxazole-4-carboxamide] | < 50 nM
Cc1cc(-c2nc(C(=O)Nc3cc4oc(N5CCOCC5)nc4nc3N3CCN(C)CC3)co2)ccn1 [Example 25, N-(5-(4-methylpiperazin-1-yl)-2-morpholinooxazolo[4,5-b]pyridin-6-yl)-2-(2-methylpyridin-4-yl)oxazole-4-carboxamide] | < 50 nM

SMILES | IC50
COc1ccc(-c2nc(C(=O)Nc3cc4oc(N5CCCCC5)nc4nc3N3CCCCC3)co2)cn1 [Example 26, N-(2,5-di(piperidin-1-yl)oxazolo[4,5-b]pyridin-6-yl)-2-(6-methoxypyridin-3-yl)oxazole-4-carboxamide] | < 50 nM
Cc1ncccc1-c1nc(C(=O)Nc2cc3oc(N4CCCCC4)nc3nc2N2CCCCC2)co1 [Example 27, N-(2,5-di(piperidin-1-yl)oxazolo[4,5-b]pyridin-6-yl)-2-(2-methylpyridin-3-yl)oxazole-4-carboxamide] | < 50 nM
O=C(Nc1cc2oc(N3CCCCC3)nc2nc1N1CCCCC1)c1coc(-c2cccnc2O)n1 [Example 28, N-(2,5-di(piperidin-1-yl)oxazolo[4,5-b]pyridin-6-yl)-2-(2-hydroxypyridin-3-yl)oxazole-4-carboxamide] | > 100 nM
O=C(Nc1cc2oc(N3CCOCC3)nc2nc1N1CCCCC1)c1coc(-c2cccnc2O)n1 [Example 29, 2-(2-hydroxypyridin-3-yl)-N-(2-morpholino-5-(piperidin-1-yl)oxazolo[4,5-b]pyridin-6-yl)oxazole-4-carboxamide] | < 50 nM
O=C(Nc1cc2oc(N3CCCCC3)nc2nc1N1CCCCC1)c1coc(-c2ccc(O)nc2)n1 [Example 30, N-(2,5-di(piperidin-1-yl)oxazolo[4,5-b]pyridin-6-yl)-2-(6-hydroxypyridin-3-yl)oxazole-4-carboxamide] | > 100 nM
Cc1ncccc1-c1nc(C(=O)Nc2cc3oc(N4CCOCC4)nc3nc2N2CCCCC2)co1 [Example 32, 2-(2-methylpyridin-3-yl)-N-(2-morpholino-5-(piperidin-1-yl)oxazolo[4,5-b]pyridin-6-yl)oxazole-4-carboxamide] | < 50 nM
Cc1cnccc1-c1nc(C(=O)Nc2cc3oc(N4CCOCC4)nc3nc2N2CCCCC2)co1 [Example 33, 2-(3-methylpyridin-4-yl)-N-(2-morpholino-5-(piperidin-1-yl)oxazolo[4,5-b]pyridin-6-yl)oxazole-4-carboxamide] | < 50 nM
Cc1cnccc1-c1nc(C(=O)Nc2cc3oc(N4CCCCC4)nc3nc2N2CCCCC2)co1 [Example 34, N-(2,5-di(piperidin-1-yl)oxazolo[4,5-b]pyridin-6-yl)-2-(3-methylpyridin-4-yl)oxazole-4-carboxamide] | < 50 nM
Cc1ccc(-c2nc(C(=O)Nc3cc4oc(N5CCOCC5)nc4nc3N3CCCCC3)co2)cn1 [Example 35, 2-(6-methylpyridin-3-yl)-N-(2-morpholino-5-(piperidin-1-yl)oxazolo[4,5-b]pyridin-6-yl)oxazole-4-carboxamide] | < 50 nM
Cc1ccc(-c2nc(C(=O)Nc3cc4oc(N5CCCCC5)nc4nc3N3CCCCC3)co2)cn1 [Example 37, N-(2,5-di(piperidin-1-yl)oxazolo[4,5-b]pyridin-6-yl)-2-(6-methylpyridin-3-yl)oxazole-4-carboxamide] | < 50 nM
N[C@H]1CCN(c2nc(C(=O)Nc3cc4oc(N5CCOCC5)nc4nc3N3CCCCC3)co2)C1 [Example 42, (S)-2-(3-aminopyrrolidin-1-yl)-N-(2-morpholino-5-(piperidin-1-yl)oxazolo[4,5-b]pyridin-6-yl)oxazole-4-carboxamide] | 50 to 100 nM
N[C@H]1CCN(c2nc(C(=O)Nc3cc4oc(N5CCOCC5)nc4nc3C3CC3)co2)C1 [Example 47, (S)-2-(3-aminopyrrolidin-1-yl)-N-(5-cyclopropyl-2-morpholinooxazolo[4,5-b]pyridin-6-yl)oxazole-4-carboxamide] | < 50 nM
Cc1cc(-c2nc(C(=O)Nc3cc4oc(N5CCCC5)nc4nc3N3CCCCC3)co2)ccn1 [Example 48, 2-(2-methylpyridin-4-yl)-N-(5-(piperidin-1-yl)-2-(pyrrolidin-1-yl)oxazolo[4,5-b]pyridin-6-yl)oxazole-4-carboxamide hydrochloride] | > 100 nM
Cn1cc(-c2cccc(C(=O)Nc3cc4sc(N5CCCCC5)nc4nc3N3CCCCC3)n2)cn1 [Example 50, N-(2,5-di(piperidin-1-yl)thiazolo[4,5-b]pyridin-6-yl)-6-(1-methyl-1H-pyrazol-4-yl)picolinamide hydrochloride] | < 50 nM
Cn1cc(-c2cccc(C(=O)Nc3cc4sc(N5CCOCC5)nc4nc3N3CCCCC3)n2)cn1 [Example 51, 6-(1-methyl-1H-pyrazol-4-yl)-N-(2-morpholino-5-(piperidin-1-yl)thiazolo[4,5-b]pyridin-6-yl)picolinamide] | < 50 nM
